Legend:
[1] = molecular target: CLK2 kinase (Homo sapiens, UniProt P49760); assay: CLK2 kinase activity assay (Z-lyte FRET); type: biochemical; details: Z-lyte Ser/Thr 6 peptide, 60 μM ATP, 1 h at room temperature;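 also: FRET read-out as coumarin to fluorescein emission ratio, unphosphorylated peptide as 0% and phosphorylated peptide as 100% controls, duplicate reactions, non-linear regression fit of dose-response curves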
[2] = molecular target: CLK3 kinase (Homo sapiens, UniProt P49761); assay: CLK3 kinase activity assay (Z-lyte FRET); type: biochemical; details: Z-lyte Ser/Thr 18 peptide, 156 μM ATP, 1 h at room temperature;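 also: kinase activity read as coumarin/fluorescein emission ratio by FRET, unphosphorylated peptide as 0% and phosphorylated peptide as 100% control, values from non-linear regression of dose-response curves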
CLK3 kinase, sequence (P49761 whole entry): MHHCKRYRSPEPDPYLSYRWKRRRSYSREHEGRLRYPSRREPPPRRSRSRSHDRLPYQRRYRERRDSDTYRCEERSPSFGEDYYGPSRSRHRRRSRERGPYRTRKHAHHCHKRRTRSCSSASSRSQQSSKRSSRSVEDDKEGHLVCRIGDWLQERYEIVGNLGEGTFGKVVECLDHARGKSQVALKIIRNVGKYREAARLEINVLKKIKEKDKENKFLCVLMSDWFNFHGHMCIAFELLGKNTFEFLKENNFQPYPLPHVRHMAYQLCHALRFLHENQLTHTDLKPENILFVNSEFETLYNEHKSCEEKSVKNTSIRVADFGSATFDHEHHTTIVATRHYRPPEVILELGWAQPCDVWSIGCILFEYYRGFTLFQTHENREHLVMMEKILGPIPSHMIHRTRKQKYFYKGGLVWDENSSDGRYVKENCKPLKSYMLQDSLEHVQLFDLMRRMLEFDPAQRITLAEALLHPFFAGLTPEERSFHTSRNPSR

[3] = test system: MMP-3 levels in supernatant of chondrocytes stimulated with IL1-β; assay: Chondrocyte protection assay compound screening (MMP-3 LANCE Ultra); type: cell-based, human; details: Homo sapiens, Chondrocyte, IL1-β 10 ng/mL overnight, 11-point curves from 3 μM to 0.05 nM; for Emax: read-out: Maximum % Inhibition
In short: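 Primary human chondrocytes (passage 2–5) in differentiation medium were stimulated with 10 ng/mL IL1-β for an overnight incubation at 37 °C. MMP-3 in 1:7-diluted supernatant was read by TR-FRET immunoassay against a standard curve, normalised to IL1-β-stimulated wells; EC50 and maximum % inhibition came from nonlinear regression.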

[4] = test system: Wnt pathway activity (SW480 colon carcinoma cells stably expressing the Sp5-Luc reporter); assay: Wnt pathway activity screening assay (Sp5-Luc reporter gene assay); details: Homo sapiens, SW480, Table 4; SW480 cells stably expressing Sp5-Luc reporter, 10-point dose-response from 10 μM, 36 to 48 hours

CLK2 kinase, sequence (P49760 whole entry): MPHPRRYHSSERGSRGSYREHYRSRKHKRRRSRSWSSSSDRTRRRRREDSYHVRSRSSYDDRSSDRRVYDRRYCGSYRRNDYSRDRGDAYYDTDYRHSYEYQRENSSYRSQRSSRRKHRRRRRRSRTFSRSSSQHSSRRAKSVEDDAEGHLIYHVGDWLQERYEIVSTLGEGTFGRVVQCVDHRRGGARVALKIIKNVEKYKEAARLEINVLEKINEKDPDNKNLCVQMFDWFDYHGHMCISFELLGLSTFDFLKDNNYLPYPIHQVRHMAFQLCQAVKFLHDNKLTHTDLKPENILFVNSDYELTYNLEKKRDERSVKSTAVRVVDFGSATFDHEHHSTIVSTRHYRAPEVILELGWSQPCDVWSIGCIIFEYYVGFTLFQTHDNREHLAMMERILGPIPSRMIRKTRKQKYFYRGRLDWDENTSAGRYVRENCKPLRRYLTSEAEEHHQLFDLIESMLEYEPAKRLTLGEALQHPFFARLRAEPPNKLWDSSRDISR

SMILES	EC50 [1] [nM]	EC50 [2] [nM]	EC50 [4] [nM]	EC50 [3] [nM]	Emax [3] [%]
O=C(Nc1cccnc1)c1n[nH]c2ccc(-c3cncc(CN4CC(CO)(CO)C4)c3)cc12 [compound 69]	2	62	> 10000	69.7	12.3
NC(=O)c1n[nH]c2ccc(-c3cncc(CN4CCCCC4)c3)cc12 [compound 74]	12	498	1960	2.3	62.7
O=C(NCc1cc(F)cc(F)c1)c1n[nH]c2ccc(-c3cncc(CN4CCCCC4)c3)cc12 [compound 77]	6	1670	1820	≥ 3000	84.8
O=C(Nc1ccc(OC(CO)CO)nc1)c1n[nH]c2ccc(-c3cncc(CN4CCCCC4)c3)cc12 [compound 83]	5	73	500	303	–
O=C(Nc1cnccn1)c1n[nH]c2ccc(-c3cncc(CN4CCCCCC4)c3)cc12 [compound 99]	2	135	430	≥ 3000	39.6
O=C(Nc1ccc(CN2CCCC2)cc1)c1n[nH]c2ccc(-c3cncnc3)cc12 [compound 103]	2	1430	1310	307	36.3
O=C(Nc1ccc(CN2CCCC2)cc1)c1n[nH]c2ccc(-c3cnccn3)cc12 [compound 104]	2	378	1660	7.1	72.8
O=C(Nc1ccc(CN2CCCC2)cc1)c1n[nH]c2ccc(-c3cnn(C4CC4)c3)cc12 [compound 113]	1	133	451	≥ 3000	57
Cc1ncc(NC(=O)c2n[nH]c3ccc(-c4cnn(C5CCN(C)CC5)c4)cc23)s1 [compound 114]	1	48	95	≥ 3000	62.8
O=C(Nc1ccc(OC(F)F)cc1)c1n[nH]c2ccc(-c3cnc4n3CCNC4)cc12 [compound 116]	1	391	684	13	61.2
Cc1cc(-c2ccc3[nH]nc(C(=O)Nc4ccc(OC5CCN(C)CC5)cc4)c3c2)sn1 [compound 117]	2	147	645	44.2	94.4
O=C(Nc1cccnc1)c1n[nH]c2cnc(-c3cncc(CN4CCCCC4)c3)cc12 [compound 118]	8	601	848	138	21.1
CC(C)CC(=O)Nc1cncc(-c2cnc3[nH]nc(-c4nc5c(-c6cccc(F)c6)cncc5[nH]4)c3c2)c1 [compound 125]	1	57	0.6	≥ 3000	–
CCN(C)Cc1cncc(-c2cnc3[nH]nc(-c4nc5c(-c6cccc(F)c6)cncc5[nH]4)c3c2)c1 [compound 140]	2	22	643	0.8	76.4
Fc1cccc(-c2cncc3[nH]c(-c4n[nH]c5cnc(-c6cncc(OC7CCNCC7)c6)cc45)nc23)c1 [compound 152]	1	33	> 10000	1710	31.8
CC(C)(C)C(=O)Nc1cncc(-c2ccc3[nH]nc(-c4nc5c(-c6cccnc6)cncc5[nH]4)c3c2)c1 [compound 188]	3	23	85.4	1100	100

Further lines, with some results ahead:

EC50 [1] [nM]	EC50 [2] [nM]	EC50 [4] [nM]	SMILES	EC50 [3] [nM]	Emax [3] [%]
1	49	477	CN1CCC(Oc2ccc(NC(=O)c3n[nH]c4ccc(-c5ccc(N)nc5)cc34)cc2)CC1 [compound 66]	4.9	62.6
1	41	96.6	COc1ccc(NC(=O)c2n[nH]c3ccc(-c4cncc(CO)c4)cc23)cn1 [compound 67]	≥ 3000	48.7
1	139	> 10000	O=C(Nc1ccc(N2CCCC2)nc1)c1n[nH]c2ccc(-c3cncc(CN4CCC4)c3)cc12 [compound 68]	≥ 3000	26.6
1	11	13	NC(=O)c1ccc(NC(=O)c2n[nH]c3ccc(-c4cncc(CN5CCCCC5)c4)cc23)cn1 [compound 87]	2220	100
1	12	30	O=C(Nc1ccc(C(=O)N2CCCC2)nc1)c1n[nH]c2ccc(-c3cncc(CN4CCCCC4)c3)cc12 [compound 88]	≥ 3000	100
1	14	27	CS(=O)(=O)c1ccc(NC(=O)c2n[nH]c3ccc(-c4cncc(CN5CCCCC5)c4)cc23)cn1 [compound 89]	5.5	79.8
1	39	1500	O=C(Nc1ccc(N2CC(CO)(CO)C2)nc1)c1n[nH]c2ccc(-c3cncc(CN4CCCCC4)c3)cc12 [compound 90]	6.7	29.7
1	17	30	Nc1ncc(NC(=O)c2n[nH]c3ccc(-c4cncc(CN5CCCCC5)c4)cc23)cn1 [compound 96]	180	100
1	37	210	O=C(Nc1cccnc1)c1n[nH]c2ccc(-c3cncc(CN4CCS(=O)(=O)CC4)c3)cc12 [compound 100]	616	8.6
1	2440	2400	CC(C)NC(=O)c1n[nH]c2ccc(-c3cncc(NC4CCNCC4)n3)cc12 [compound 105]	2740	53.1
1	101	315	Cn1cc(-c2cc3c(C(=O)Nc4ccc(OCCN5CCCC5)cc4)n[nH]c3cc2F)cn1 [compound 108]	≥ 3000	32.1
1	79	230	CN1CCC(Nc2ccc(NC(=O)c3n[nH]c4cc(F)c(-c5cnn(C)c5)cc34)cn2)CC1 [compound 109]	1160	100
1	48	120	CN1CCC(Oc2ccc(NC(=O)c3n[nH]c4cc(F)c(-c5cnn(C)c5)cc34)cn2)CC1 [compound 110]	1080	87.2
1	89	1150	CN1CCC(Oc2ncc(NC(=O)c3n[nH]c4cc(F)c(-c5cnn(C)c5)cc34)cc2F)CC1 [compound 111]	12.6	76.2
1	116	793	Cn1cc(-c2cc3c(C(=O)Nc4ccc5c(c4)CNC5)n[nH]c3cc2F)cn1 [compound 112]	1200	88.3
